pIC50: −log10 of the molar value. Like-named read-outs stand apart in the source and are kept apart here.
Tests used:
[1] = tested on: HCT116 FOP control reporter cell line; experiment: HCT116 FOP control vector reporter assay (non-functional TCF elements); format: cell-based; conditions: HCT116 FOP control reporter cells, luciferase expression, 36 hours incubation, 50 μM to 15 nM, read-out: HCT116 FOPFlash IC50
Protocol: (§1) In a parallel approach, HCT116 cells were cotransfected with the FOP control vector and pcDNA3. The FOP vector is identical to the TOP construct, but it contains instead of functional TCF elements a randomized, non-functional sequence. For this transfection a stable transfected cell line was generated as well.
(§2) In preparation of the assay, the two cell lines were plated 24 hrs before at 10000 cells per well of a 384 micro titre plate (MTP) in 30 μL growth medium. Selective inhibitory activity for small molecules on the mutated Wnt pathway was determined after parallel incubation of both (TOP and FOP) HCT116 reporter cell lines with a compound dilution series from 50 μM to 15 nM in steps of 3.16-fold dilutions in CAFTY buffer (130 mM NaCl, 5 mM KCl, 20 mM HEPES, 1 mM MgCl2, 5 mM NaHCO3, pH 7.4) containing 2 mM Ca^2+ and 0.01% BSA. The compounds were thereby serially prediluted in 100% DMSO and thereafter in addition 50 fold into the CAFTY compound dilution buffer (described above). From this dilution 10 μL were added to the cells in 30 μL growth medium and incubated for 36 hours at 37° C. and 5% CO2. Thereafter luciferase assay buffer (1:1 mixture of luciferase substrate buffer (20 mM Tricine, 2.67 mM MgSO4, 0.1 mM EDTA, 4 mM DTT, 270 μM Coenzyme A, 470 μM Luciferin, 530 μM ATP, ph adjusted to pH 7.8 with a sufficient volume of 5M NaOH) and Triton buffer (30 mL Triton X-100, 115 mL glycerol, 308 mg Dithiothreitol, 4.45 g Na2HPO4.2 H2O, 3.03 g Tris.HCL, ad 1 l H20, pH 7.8) was added as equal volume to the compound solution on the cells to determine luciferase expression as a measure of Wnt signaling activity in a luminometer.

[2] = tested on: constitutive active colorectal cancer cell (CRC) Wnt pathway; experiment: HCT116 Super TopFlash cellular reporter assay (constitutive active Wnt pathway); format: cell-based; conditions: HCT116 TOP reporter cells, luciferase expression, 36 hours incubation, 50 μM to 15 nM
Protocol: In order to discover and characterize small molecules which inhibit the constitutive active colorectal cancer cell (CRC) Wnt pathway, a cellular reporter assay was employed. The corresponding assay cell was generated by transfection of the colorectal cancer cell line HCT116 (ATCC, #CCL-247) with the Super TopFlash vector (Morin, Science 275, 1997, 1787-1790; Molenaar et al., Cell 86 (3), 1996, 391-399). The HCT116 cell line is cultivated at 37° C. and 5% CO2 in DMEM/F-12 (Life Technologies, #11320-074), supplemented with 2 mM glutamine, 20 mM HEPES, 1.4 mM pyruvate, 0.15% Na-bicarbonate and 10% foetal bovine serum (GIBCO, #10270), this cancer cell line is pathophysiological relevant since it carries a deletion of position S45 in the β-catenin gene, leading to constitutive active Wnt signaling. Stable transfectants were generated by cotransfection with pcDNA3 and selection of stable transfected cells with 1 mg/ml G418.
as §1, §2

SMILES | pIC50 ([1]; Homo sapiens, HCT-116, 36 h) | pIC50 ([2]; Homo sapiens, HCT-116, 36 h) | pIC50 [1] | pIC50 [2]
CCC(C(=O)Nc1cc(C(=O)Nc2ccc(-c3ccccc3)cc2)ccc1OC)N1CCOCC1 (single isomer, unassigned) [Example 131, N-(biphenyl-4-yl)-4-methoxy-3-{[(2R*)-2-(morpholin-4-yl)butanoyl)amino} benzamide] | ≤ 4.30 | 6.76 | – | –
CCC(C(=O)Nc1cc(C(=O)Nc2ccc(-c3ccccc3)cc2)ccc1OC)N1CCOCC1 (single isomer, unassigned) [Example 132, N-(biphenyl-4-yl)-4-methoxy-3-{[(2S*)-2-(morpholin-4-yl)butanoyl]amino} benzamide] | – | – | ≤ 4.30 | 6.51
COCc1ccc(C(=O)Nc2ccc(-c3ccccc3)cc2)cc1NC(=O)C(C)N1CC2CCC(C1)O2 (single isomer, unassigned) [Example 146, N-(biphenyl-4-yl)-4-(methoxymethyl)-3-{[(2R*)-2-(8-oxa-3-azabicyclo[3.2.1]oct-3-yl)propanoyl)amino} benzamide] | 4.57 | 8.00 | – | –
COCCOCc1ccc(C(=O)Nc2ccc(-c3ccccc3)cc2)cc1NC(=O)C(C)N1CCOCC1 (single isomer, unassigned) [Example 162, N-(biphenyl-4-yl)-4-[(2-methoxyethoxy)methyl]-3-{[(2R*)-2-(morpholin-4-yl)propanoyl)amino} benzamide] | 4.98 | 6.99 | – | –
COCCCOCc1ccc(C(=O)Nc2ccc(-c3ccccc3)cc2)cc1NC(=O)C(C)N1CCOCC1 (single isomer, unassigned) [Example 166, N-(biphenyl-4-yl)-4-[(3-methoxypropoxy)methyl]-3-{[(2R*)-2-(morpholin-4-yl)propanoyl]amino} benzamide] | 5.27 | – | – | 6.87
COCc1ccc(C(=O)Nc2ccc(-c3ccccc3)cc2)cc1NC(=O)C(C)N1CC2CCC(C1)O2 (single isomer, unassigned) [Example 167, N-(biphenyl-4-yl)-4-(methoxymethyl)-3-{[(2S*)-2-(8-oxa-3-azabicyclo[3.2.1]oct-3-yl)propanoyl]amino} benzamide] | 4.39 | 6.86 | – | –
COCc1ccc(C(=O)Nc2ccc(-c3ccccc3)cc2)cc1NC(=O)C(C)N1CCOCC1 (single isomer, unassigned) [Example 169, N-(biphenyl-4-yl)-4-(methoxymethyl)-3-{[(2R*)-2-(morpholin-4-yl)propanoyl]amino} benzamide] | 5.00 | 6.81 | – | –
CC(C(=O)Nc1cc(NC(=O)c2ccc(-c3ccccc3)cc2)ccc1C(F)(F)F)N1CCOCC1 (single isomer, unassigned) [Example 172, N-[3-{[(2R*)-2-(morpholin-4-yl)propanoyl]amino}-4-(trifluoromethyl)phenyl] biphenyl-4-carboxamide] | ≤ 4.30 | 6.68 | – | –
COCc1ccc(C(=O)Nc2ccc(-c3ccccc3)cc2)cc1NC(=O)C(C)N1CCOCC1 (single isomer, unassigned) [Example 173, N-(biphenyl-4-yl)-4-(methoxymethyl)-3-{[(2S*)-2-(morpholin-4-yl)propanoyl]amino} benzamide] | – | – | 5.12 | 6.67
COCCOCc1ccc(C(=O)Nc2ccc(-c3ccccc3)cc2)cc1NC(=O)C(C)N1CCOCC1 (single isomer, unassigned) [Example 177, N-(biphenyl-4-yl)-4-[(2-methoxyethoxy)methyl)-3-{[(2S*)-2-(morpholin-4-yl)propanoyl)amino} benzamide] | 4.82 | 6.58 | – | –
COCCCOCc1ccc(C(=O)Nc2ccc(-c3ccccc3)cc2)cc1NC(=O)C(C)N1CCOCC1 (single isomer, unassigned) [Example 179, N-(biphenyl-4-yl)-4-[(3-methoxypropoxy)methyl]-3-{[(2S*)-2-(morpholin-4-yl)propanoyl]amino} benzamide] | – | – | 5.12 | 6.52
CC(C(=O)Nc1cc(NC(=O)c2ccc(-c3ccccc3)cc2)ccc1C(F)(F)F)N1CCOCC1 (single isomer, unassigned) [Example 180, N-(3-{[(2S*)-2-(morpholin-4-yl)propanoyl]amino}-4-(trifluoromethyl)phenyl] biphenyl-4-carboxamide] | – | – | ≤ 4.30 | 6.52
CC(C(=O)Nc1cc(NC(=O)c2ccc(-c3ccccc3)cc2)ccc1C(F)(F)F)N1CC2CCC(C1)O2 (single isomer, unassigned) [Example 182, N-[3-{[(2R*)-2-(8-oxa-3-azabicyclo[3.2.1]oct-3-yl)propanoyl]amino}-4-(trifluoromethyl)phenyl] biphenyl-4-carboxamide] | ≤ 4.30 | – | – | 6.51
O=C(Cn1cccn1)Nc1cc(C(=O)Nc2ccc(-c3ccccc3)cc2)ccc1C(F)(F)F [Example 3, N-(biphenyl-4-yl)-3-[(1H-pyrazol-1-ylacetyl)amino]-4-(trifluoromethyl)benzamide] | ≤ 4.30 | 6.37 | – | –
COc1cc(Cl)c(C(=O)Nc2ccc(-c3ccccc3)cc2)cc1NC(=O)C(C)N1CCOCC1 (stereo not drawn) [Example 5, N-(biphenyl-4-yl)-2-chloro-4-methoxy-5-{[2-(morpholin-4-yl)propanoyl]amino}benzamide] | ≤ 4.30 | 6.29 | – | –
COc1cc(Cl)c(C(=O)Nc2ccc(-c3ccccc3)cc2)cc1NC(=O)CN1CCOCC1 [Example 6, N-(biphenyl-4-yl)-2-chloro-4-methoxy-5-[(morpholin-4-ylacetyl)amino]benzamide] | ≤ 4.30 | 5.41 | – | –
O=C(CN1CC2CCC(C1)O2)Nc1cc(C(=O)Nc2ccc(-c3ccccc3)cc2)ccc1C(F)(F)F [Example 10, N-(biphenyl-4-yl)-3-[(8-oxa-3-azabicyclo[3.2.1]oct-3-ylacetyl)amino]-4-(trifluoromethyl)benzamide] | ≤ 4.30 | 6.77 | – | –
O=C(CN1C[C@@H]2C[C@H]1CO2)Nc1cc(C(=O)Nc2ccc(-c3ccccc3)cc2)ccc1C(F)(F)F [Example 11, N-(biphenyl-4-yl)-3-{[(1S,4S)-2-oxa-5-azabicyclo[2.2.1]hept-5-ylacetyl]amino}-4-(trifluoromethyl)benzamide] | ≤ 4.30 | 6.27 | – | –
O=C(CN1CCOCC1)Nc1cc(C(=O)Nc2ccc(-c3ccccc3)cc2)ccc1-c1cccs1 [Example 19, N-(biphenyl-4-yl)-3-[(morpholin-4-ylacetyl)amino]-4-(2-thienyl)benzamide] | ≤ 4.30 | 6.87 | – | –
CN(C)C(=O)c1ccc(C(=O)Nc2ccc(-c3ccccc3)cc2)cc1NC(=O)CN1CCOCC1 [Example 21, N^4-(biphenyl-4-yl)-N^1,N^1-dimethyl-2-[(morpholin-4-ylacetyl)amino]terephthalamide] | 4.78 | 6.48 | – | –
O=C(CN1CCOCC1)Nc1cc(C(=O)Nc2ccc(-c3ccccc3)cc2)ccc1OCc1ccccc1 [Example 24, 4-(benzyloxy)-N-(biphenyl-4-yl)-3-[(morpholin-4-ylacetyl)amino]benzamide] | ≤ 4.30 | 6.44 | – | –
O=C(CN1CCOCC1)Nc1cc(NC(=O)c2ccc(-c3ccccc3)cc2)ccc1F [Example 29, N-{4-fluoro-3-[(morpholin-4-ylacetyl)amino]phenyl}biphenyl-4-carboxamide] | ≤ 4.30 | 5.67 | – | –
C[C@H](C(=O)Nc1cc(NC(=O)c2ccc(-c3ccccc3)cc2)ccc1F)N1CCOCC1 [Example 31, N-(4-fluoro-3-{[(2R)-2-(morpholin-4-yl)propanoyl]amino}phenyl)biphenyl-4-carboxamide] | ≤ 4.30 | 5.42 | – | –
COc1ccc(NC(=O)c2ccc(-c3ccccc3)cc2)cc1NC(=O)CN1CCO[C@@H](CO)C1 [Example 34, N-[3-({[(2R)-2-(hydroxymethyl)morpholin-4-yl]acetyl}amino)-4-methoxyphenyl]biphenyl-4-carboxamide] | ≤ 4.30 | 5.97 | – | –

Source: US20160052898A1, “NOVEL COMPOUNDS” (BAYER PHARMA AKTIENGESELLSCHAFT, priority 2013, published 2016)
